Experiment [1] concerns A498. Description: Cytotoxicity against human A498 cells assessed as reduction in cell viability. In kind it is functional, cell-based.
For experiment [2], the system named is A498. Description: Antiproliferative activity against human A498 cells after 48 hrs by sulphorhodamine B assay. The class given is functional, cell-based. The following applies: A498, 48 h. In general terms: The SRB assay estimates cell density from bound dye.

One may read the IC50 as the concentration at which inhibition is half-maximal. In the case of `CC[C@@]12C[C@@H](OC(=O)CO)[C@@](C)(O1)[C@@H]1CC[C@@H](C)[C@H]1[C@@H]2OC(=O)/C=C/c1ccccc1`, the IC50 in experiment [1] came out at 950 nM.
In the case of `CC1(C)C2C[C@H](OC(=O)/C=C/c3ccccc3)C1(C)C[C@H]2OC(=O)CO` (stereo not given in full), the IC50 in experiment [1] was 35000 nM.
In experiment [2], `CC(C)[C@@]12C[C@@H](C(=O)OCCO)[C@@](C)(O1)[C@@H]1CC[C@@H](C)[C@H]1[C@@H]2OC(=O)/C=C/c1ccccc1` displayed an IC50 of 48 nM.
Consider `C[C@@H]1CC[C@@H]2[C@@H]1[C@H](OC(=O)/C=C/c1ccccc1)[C@]1(C)C[C@@H](OC(=O)CO)[C@@]2(C)O1`, for which the concentration for half-maximal inhibition (IC50) in experiment [1] was determined as 4600 nM.
Regarding `CC(C)[C@@]12C[C@@H](OC(=O)CO)[C@@](C)(O1)[C@@H]1CC[C@@H](C)[C@H]1[C@@H]2OC(=O)c1ccc(Cl)cc1Cl`, the IC50 in experiment [1] turned out to be 280 nM.

Source of the values: ChEMBL document CHEMBL4052604, “Englerins: A Comprehensive Review” (J Nat Prod, 2017).
